According to patent US20200348288A1, “A method and a system for analysis of cardiomyocyte function” (IMEC VZW, priority 2017, published 2020):

Test system: cardiomyocytes
Assay: analysis of cardiomyocyte function (microelectrode array recording with simultaneous reflective lensfree imaging) before and after administering of a drug
Format: cell-based
Settings: after vs before administering of drug, FIG. 5
From the text: During or in-between measurements, a drug may be administered 210 to the cardiomyocytes in order to allow predicting of adverse effects on electrical and/or contractile function of the cardiomyocytes.
After drug treatment, analysis 212 on the cardiomyocytes is again performed. The electrical and/or contractile representations before and after drug treatment may be compared in order to predict adverse effects.
The method further comprises recording 304 electrical signals from the cardiomyocytes. The electrical signals may be acquired by the microelectrode array 112, which may be arranged in contact with the cardiomyocytes on the substrate 110. The electrical signals may further be transferred to readout circuitry 120 recording electrical signals received from the microelectrode array 112.
The method further comprises simultaneously with the recording 304, acquiring 306 a sequence of images. Each image may be acquired by detecting light wavefront information in reflective lensfree imaging and reconstructing the image of the cardiomyocytes based on the detected light wavefront information.
The method further comprises determining 308 an electrical representation relating to an intracellular and/or extracellular action potential, and/or an impedimetric electrical image of a cardiomyocyte based on the recorded electrical signals. […]

## Cc1ccc2c(c1)C(=O)C1(O)CCN(c3ccccc3)C1=N2 (centres unmarked) [blebbistatin]
  contractile function of the cardiomyocytes (contractile representation): severe adverse effects
  electrical function of the cardiomyocytes (electrical representation): not affected
